From patent US9457022B2, “Methods and compositions for treating or preventing symptoms of hormonal variations” (priority 2010, dated 2016)
Where two headings read alike, the source gives them in different places.

How the values were obtained:
[1] = tested on: hot flashes; test: Dextromethorphan HBr in menopausal women with no breast cancer history; severity and frequency of hot flashes; type: in vivo, human; conditions: 15 mg in the morning and 15 mg in the evening; summary of Table 1
Method: The dosage given in these test cases was 15 mg in the morning and 15 mg in the evening of Dextromethorphan, e.g., DextromethorphanHBr. The decrease in the symptoms of hormonal variation was noted by assessing the severity and frequency of hot flashes.

[2] = tested on: hot flashes, night sweats and other menopausal symptoms; conditions: for Impact on reducing the menopausal symptoms (hot flashes, night sweats): 2009, patient on Tamoxifen, Clonidine given with Vitamin E
From the text: One of ordinary skill in the art would appreciate that this specific example is not intended to limit the scope of the invention.
In September of 1993, a person who had been experiencing severe menstrual cycles required a partial hysterectomy. […] Approximately a year after surgery, they were placed on Cenestin™ (a kind of hormone replacement therapy, i.e., “HRT”).
At this time, the patient began taking dosages of Wellbutrin™ and receiving another hormone replacement therapy of estrogen and testosterone to treat the hot flashes, night sweats and other menopausal symptoms.
In November of 2008, the patient was diagnosed with Stage 2 breast cancer and the HRT was discontinued immediately. Subsequently, the patient underwent a lumpectomy and the removal of fourteen lymph nodes (one tested positive).
In December 2008, the patient went through an intense treatment of chemotherapy which lasted until April 2009. At this time, a less intense chemotherapy treatment was continued until November 2009. The patient also received radiation therapy from April 2009 until June 2009. At the end of the radiation therapy, the patient was started on a regimen of Tamoxifen™.
Clonidine™ is a direct-acting α2 adrenergic agonist that is used to treat several medical conditions. […] Both the Clonidine™ and the Wellbutrin™ were discontinued in June 2009.
It was originally developed for the treatment of epilepsy, and currently, gabapentin is widely used to relieve pain, especially neuropathic pain. […] At this time, the patient was treated with Effexor™ (generic name Venlafaxine), a medication which is used primarily for the treatment of major depression, generalized anxiety disorder, social anxiety disorder, obsessive—compulsive disorder, panic disorder, and menopausal hot flashes in adults.
At this time, the patient began Wellbutrin™ again to treat the hot flashes, night sweats and other menopausal symptoms.
The dosage continued and remained the same for another 5 days.

[3] = tested on: hot flashes; conditions: cited from earlier work
[4] = tested on: hot flashes; conditions: men; double blind, cross over study; cited from earlier work

COc1ccc2c(c1)[C@]13CCCC[C@@H]1[C@H](C2)N(C)CC3 [Dextromethorphan HBr]
Women who no longer had hot flashes when on Dextromethorphan [1]: four out of the five
Hot flashes, night sweats and other menopausal symptoms ([2]; 30 mg per day (15 mg every 12 hours), by the third day): totally gone
Occurrence of hot flashes, night sweats and other menopausal symptoms ([2]; 30 mg per day (15 mg every 12 hours), two days after starting): reduced significantly
Time to reoccurrence of menopausal symptoms after discontinuation ([2]; after 8 days of 30 mg per day): ≤ 24 h
Hot flashes, night sweats and menopausal symptoms after Wellbutrin was discontinued ([2]; continuing Dextromethorphan HBr alone): did not reoccur
Time to elimination of symptoms after again commencing treatment ([2]; human, in vivo): ≤ 24 h

Clc1cccc(Cl)c1N=C1NCCN1 [clonidine]
Adverse effects (dry mouth, dizziness, blurred vision) ([3]; randomized clinical trials): common
Efficacy versus placebo in preventing hot flashes ([3]; randomized clinical trials): moderately more efficacious than placebo
Decrease of hot flash frequency greater than that seen with placebo ([3]; women treated with clonidine): 10-15%
Difference from placebo effect in self-reported hot flash frequency [4]: not statistically significant
Impact on reducing the menopausal symptoms (hot flashes, night sweats) [2]: no impact

CC(=O)O[C@]1(C(C)=O)CC[C@H]2[C@@H]3C=C(C)C4=CC(=O)CC[C@]4(C)[C@H]3CC[C@@]21C [megestrol acetate]
Reduction in self-reported hot flash frequency ([3]; men and women, placebo 20%): ~80%

CNCCC(Oc1ccc(C(F)(F)F)cc1)c1ccccc1 (stereo not drawn) [Fluoxetine]
Reduction in hot-flash scores ([3]; 20 mg/day, placebo 36%): 50%

CC/C(=C(\c1ccccc1)c1ccc(OCCN(C)C)cc1)c1ccccc1 [Tamoxifen™, tamoxifen]
Hot flashes, night sweats and other menopausal symptoms since commencing treatment ([2]; human, in vivo): increased in intensity

COc1ccc(C(CN(C)C)C2(O)CCCCC2)cc1 (stereo not drawn) [venlafaxine]
Reduction in hot-flash scores ([3]; randomized clinical trial, low dose (37.5 mg/day), placebo 27%): 37%
Reduction in hot-flash scores ([3]; randomized clinical trial, moderate and high doses (75 and 150 mg/day), statistically significant): 61%
Impact on reducing the menopausal symptoms (hot flashes, night sweats) [2]: no impact

NCC1(CC(=O)O)CCCCC1 [gabapentin]
Reduction of incidence of hot flashes ([3]; pilot trials): 42%-70%
Impact on reducing the menopausal symptoms (hot flashes, night sweats) [2]: no impact

CC(NC(C)(C)C)C(=O)c1cccc(Cl)c1 (stereo not drawn) [Wellbutrin™, bupropian]
Impact on reducing the menopausal symptoms (hot flashes, night sweats) [2]: no impact
Frequency and intensity of hot flashes, night sweats and other menopausal symptoms (patient report) ([2]; Wellbutrin together with hormone replacement therapy of estrogen and testosterone, from 2006): markedly reduced
